Columns and labels:
Assay type in all cases: in vivo
[1] = system: large crabgrass (Digitaria sanguinalis, DIS); experiment: Pre-emerge test, large crabgrass; conditions: 250 g ai/ha, 14 days after application, rating scale 0-100 (0 no damage, 100 complete death)
How it was run: (§1)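 Pre-emerge greenhouse screen: sow, wait 1 d, spray acetone solution (8–1000 g ai/ha, 187 l/ha), rate injury 0–100 at 14 DAT.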

[2] = system: redroot pigweed (Amaranthus retroflexus, AMR); experiment: Post-emerge test, redroot pigweed; conditions: 250 g ai/ha, 14 days after application, rating scale 0-100 (0 no damage, 100 complete death)
How it was run: (§2)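 Values are visual phytotoxicity ratings on a 0-100 scale taken 14 days after application, where 0 means no damage and 100 complete death. Compounds in acetone with 0.25% v/v non-ionic surfactant were track-sprayed at 187 l/ha, 8-1000 g ai/ha, onto plants at the 2-3 leaf stage.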

[3] = system: wheat (Triticum aestivum); experiment: Pre-emerge test, crop damage wheat
How it was run: (§3)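 Sandy loam soil mix, 10 cm pots, sowing 1 d before treatment; spray volume 187 l/ha, rates 8–1000 g ai/ha in acetone; 0–100 visual rating at 14 d.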

[4] = system: upland rice (Oryza sp., var.Tebonnet, RICE); experiment: Pre-emerge test, crop damage upland rice
How it was run: as §3

[5] = system: wheat (Triticum aestivum); experiment: Post-emerge test, crop damage wheat
How it was run: as §2

[6] = system: lambsquarters (Chenopodium album, CHA); experiment: Post-emerge test, lambsquarters; conditions: 250 g ai/ha, 14 days after application, rating scale 0-100 (0 no damage, 100 complete death)
How it was run: as §2

[7] = system: barnyardgrass (Echinachloa crus-galli, ECC); experiment: Pre-emerge test, barnyardgrass; conditions: 250 g ai/ha, 14 days after application, rating scale 0-100 (0 no damage, 100 complete death)
How it was run: as §1

[8] = system: cocklebur (Xanthium strumariunt, XAS); experiment: Pre-emerge test, cocklebur; conditions: 250 g ai/ha, 14 days after application, rating scale 0-100 (0 no damage, 100 complete death)
How it was run: as §1

[9] = system: ivyleaf morningglory (Ipomoea hederacea, IPH); experiment: Pre-emerge test, ivyleaf morningglory; conditions: 250 g ai/ha, 14 days after application, rating scale 0-100 (0 no damage, 100 complete death)
How it was run: as §1

[10] = system: green foxtail (Setaria viridis, SEV); experiment: Post-emerge test, green foxtail; conditions: 250 g ai/ha, 14 days after application, rating scale 0-100 (0 no damage, 100 complete death)
How it was run: as §2

[11] = system: lambsquarters (Chenopodium album, CHA); experiment: Pre-emerge test, lambsquarters; conditions: 250 g ai/ha, 14 days after application, rating scale 0-100 (0 no damage, 100 complete death)
How it was run: as §1

[12] = system: velvetleaf (Abutilon theophrasti, ABT); experiment: Post-emerge test, velvetleaf; conditions: 250 g ai/ha, 14 days after application, rating scale 0-100 (0 no damage, 100 complete death)
How it was run: as §2

[13] = system: cocklebur (Xanthium strumariunt, XAS); experiment: Post-emerge test, cocklebur; conditions: 250 g ai/ha, 14 days after application, rating scale 0-100 (0 no damage, 100 complete death)
How it was run: as §2

[14] = system: ivyleaf morningglory (Ipomoea hederacea, IPH); experiment: Post-emerge test, ivyleaf morningglory; conditions: 250 g ai/ha, 14 days after application, rating scale 0-100 (0 no damage, 100 complete death)
How it was run: as §2

[15] = system: barnyardgrass (Echinachloa crus-galli, ECC); experiment: Post-emerge test, barnyardgrass; conditions: 250 g ai/ha, 14 days after application, rating scale 0-100 (0 no damage, 100 complete death)
How it was run: as §2

[16] = system: common ragweed (Ambrosia artemisiifolia L., AML); experiment: Pre-emerge test, common ragweed; conditions: 250 g ai/ha, 14 days after application, rating scale 0-100 (0 no damage, 100 complete death)
How it was run: as §1

[17] = system: large crabgrass (Digitaria sanguinalis, DIS); experiment: Post-emerge test, large crabgrass; conditions: 250 g ai/ha, 14 days after application, rating scale 0-100 (0 no damage, 100 complete death)
How it was run: as §2

[18] = system: field corn (Zea mays L., var. Dekalb 535, CORN); experiment: Post-emerge test, crop damage field corn
How it was run: as §2

[19] = system: soybean (Glycine max L., var. Pella 86, SOY); experiment: Pre-emerge test, crop damage soybean
How it was run: as §3

[20] = system: soybean (Glycine max L., var. Pella 86, SOY); experiment: Post-emerge test, crop damage soybean
How it was run: as §2

[21] = system: johnsongrass (Sorghum halepense, SOH); experiment: Post-emerge test, johnsongrass; conditions: 250 g ai/ha, 14 days after application, rating scale 0-100 (0 no damage, 100 complete death)
How it was run: as §2

[22] = system: common ragweed (Ambrosia artemisiifolia L., AML); experiment: Post-emerge test, common ragweed; conditions: 250 g ai/ha, 14 days after application, rating scale 0-100 (0 no damage, 100 complete death)
How it was run: as §2

[23] = system: redroot pigweed (Amaranthus retroflexus, AMR); experiment: Pre-emerge test, redroot pigweed; conditions: 250 g ai/ha, 14 days after application, rating scale 0-100 (0 no damage, 100 complete death)
How it was run: as §1

[24] = system: green foxtail (Setaria viridis, SEV); experiment: Pre-emerge test, green foxtail; conditions: 250 g ai/ha, 14 days after application, rating scale 0-100 (0 no damage, 100 complete death)
How it was run: as §1

[25] = system: field corn (Zea mays L., var. Dekalb 535, CORN); experiment: Pre-emerge test, crop damage field corn
How it was run: as §3

[26] = system: upland rice (Oryza sp., var.Tebonnet, RICE); experiment: Post-emerge test, crop damage upland rice
How it was run: as §2

[27] = system: velvetleaf (Abutilon theophrasti, ABT); experiment: Pre-emerge test, velvetleaf; conditions: 250 g ai/ha, 14 days after application, rating scale 0-100 (0 no damage, 100 complete death)
How it was run: as §1

[28] = system: johnsongrass (Sorghum halepense, SOH); experiment: Pre-emerge test, johnsongrass; conditions: 250 g ai/ha, 14 days after application, rating scale 0-100 (0 no damage, 100 complete death)
How it was run: as §1

[29] = system: sicklepod (Cassia obtusifolia, CAO); experiment: Post-emerge test, sicklepod; conditions: 250 g ai/ha, 14 days after application, rating scale 0-100 (0 no damage, 100 complete death)
How it was run: as §2

[30] = system: sicklepod (Cassia obtusifolia, CAO); experiment: Pre-emerge test, sicklepod; conditions: 250 g ai/ha, 14 days after application, rating scale 0-100 (0 no damage, 100 complete death)
How it was run: as §1

[31] = Triticum aestivum (wheat), in vivo, 14 days
[32] = var. Tebonnet, Oryza sp. (upland rice), in vivo, 14 days
[33] = var. Dekalb 535, Zea mays (field corn), in vivo, 14 days
[34] = var. Pella 86, Glycine max (soybean), in vivo, 14 days
[35] = pre-emerge, 250 g ai/ha, 14 days after application, rating scale 0-100 (0 no damage, 100 complete death)
[36] = post-emerge, 250 g ai/ha, 14 days after application, rating scale 0-100 (0 no damage, 100 complete death)

| SMILES | Pre-emerge Herbicidal Activity DIS (phytotoxicity rating) [1] | Post-emerge Herbicidal Activity AMR (phytotoxicity rating) [2] | Post-emerge Herbicidal Activity CHA (phytotoxicity rating) [6] | Pre-emerge Herbicidal Activity ECC (phytotoxicity rating) [7] | Pre-emerge Herbicidal Activity XAS (phytotoxicity rating) [8] | Pre-emerge Herbicidal Activity IPH (phytotoxicity rating) [9] | Post-emerge Herbicidal Activity SEV (phytotoxicity rating) [10] | Pre-emerge Herbicidal Activity CHA (phytotoxicity rating) [11] | Post-emerge Herbicidal Activity ABT (phytotoxicity rating) [12] | Post-emerge Herbicidal Activity XAS (phytotoxicity rating) [13] | Post-emerge Herbicidal Activity IPH (phytotoxicity rating) [14] | Post-emerge Herbicidal Activity ECC (phytotoxicity rating) [15] | Pre-emerge Herbicidal Activity AML (phytotoxicity rating) [16] | Post-emerge Herbicidal Activity DIS (phytotoxicity rating) [17] | Post-emerge Herbicidal Activity SOH (phytotoxicity rating) [21] | Post-emerge Herbicidal Activity AML (phytotoxicity rating) [22] | Pre-emerge Herbicidal Activity AMR (phytotoxicity rating) [23] | Pre-emerge Herbicidal Activity SEV (phytotoxicity rating) [24] | Pre-emerge Herbicidal Activity ABT (phytotoxicity rating) [27] | Pre-emerge Herbicidal Activity SOH (phytotoxicity rating) [28] | further results |
| --- | --- | --- | --- | --- | --- | --- | --- | --- | --- | --- | --- | --- | --- | --- | --- | --- | --- | --- | --- | --- | --- |
| CC1C(=O)Nc2c(-c3nn(C)c(OC(F)F)c3Cl)c(F)cc3c2N1C(=O)CO3 (stereo not drawn) [1-26, 8-[4-Chloro-5-(difluoromethoxy)-1-methyl-1H-pyrazole-3-yl)-9-fluoro-5-methyl-5H-pyrazino[1,2,3-de]-1,4-benzoxazine-3,6(2H, 7H)-dione] | 100 | 100 | 100 | 100 | 99 | 100 | 100 | 100 | 100 | 100 | 100 | 99 | 100 | 40 | 80 | 99 | 100 | 100 | 100 | 100 | Pre-emerge crop damage WHEAT (phytotoxicity rating) [3, 31]: 98; Pre-emerge crop damage RICE (phytotoxicity rating) [4, 32]: 100; Post-emerge crop damage WHEAT (phytotoxicity rating) [5, 31]: 60; Post-emerge crop damage CORN (phytotoxicity rating) [18, 33]: 40; Pre-emerge crop damage SOY (phytotoxicity rating) [19, 34]: 98; Post-emerge crop damage SOY (phytotoxicity rating) [20, 34]: 100; Pre-emerge crop damage CORN (phytotoxicity rating) [25, 33]: 100; Post-emerge crop damage RICE (phytotoxicity rating) [26, 32]: 90; Post-emerge Herbicidal Activity CAO (phytotoxicity rating) [29]: 100; Pre-emerge Herbicidal Activity CAO (phytotoxicity rating) [30]: 99 |
| CC1C(=O)Nc2c(-c3nn(C)c(OC(F)F)c3Cl)c(F)cc3c2N1C(=O)C(C)(C)O3 (stereo not drawn) [1-60] | 100 | 85 | 100 | 100 | 85 | 100 | 95 | 100 | 100 | 85 | 100 | 98 | 80 | 0 | 0 | 70 | 100 | 100 | 100 | 100 | Pre-emerge crop damage WHEAT (phytotoxicity rating) [3, 35]: 50; Pre-emerge crop damage RICE (phytotoxicity rating) [4, 35]: 70; Post-emerge crop damage WHEAT (phytotoxicity rating) [5, 36]: 30; Post-emerge crop damage CORN (phytotoxicity rating) [18, 36]: 5; Pre-emerge crop damage SOY (phytotoxicity rating) [19, 35]: 40; Post-emerge crop damage SOY (phytotoxicity rating) [20, 36]: 50; Pre-emerge crop damage CORN (phytotoxicity rating) [25, 35]: 80; Post-emerge crop damage RICE (phytotoxicity rating) [26, 36]: 0; Post-emerge Herbicidal Activity CAO (phytotoxicity rating) [29]: 60; Pre-emerge Herbicidal Activity CAO (phytotoxicity rating) [30]: 98 |
| CC(C)C1C(=O)Nc2c(N3C(=O)C4=C(CCCC4)C3=O)c(F)cc3c2N1C(=O)CO3 (stereo not drawn) [1-78] | 0 | 60 | 99 | 0 | 0 | 25 | 0 | 70 | 0 | 80 | 75 | 0 | 0 | 0 | 0 | 70 | 20 | 0 | 10 | 0 | Pre-emerge crop damage WHEAT (phytotoxicity rating) [3, 35]: 0; Pre-emerge crop damage RICE (phytotoxicity rating) [4, 35]: 0; Post-emerge crop damage WHEAT (phytotoxicity rating) [5, 36]: 50; Post-emerge crop damage CORN (phytotoxicity rating) [18, 36]: 0; Pre-emerge crop damage SOY (phytotoxicity rating) [19, 35]: 0; Post-emerge crop damage SOY (phytotoxicity rating) [20, 36]: 10; Pre-emerge crop damage CORN (phytotoxicity rating) [25, 35]: 0; Post-emerge crop damage RICE (phytotoxicity rating) [26, 36]: 60; Post-emerge Herbicidal Activity CAO (phytotoxicity rating) [29]: 0; Pre-emerge Herbicidal Activity CAO (phytotoxicity rating) [30]: 15 |

Reference: patent publication US6770596B1, “Fused tricyclic compounds, process for their preparation, and herbicidal compositions containing them” (Ishihara Sangyo Kaisha Ltd., priority 2002, dated 2004)
